According to patent US11161817B2, “Quinoline derivative and use thereof as tyrosine kinase inhibitor” (CHONGQING PHARMACEUTICAL INDUSTRIAL RESEARCH INSTITUTE CO. …, priority 2017, dated 2021):

Experiments:
[1] = molecular target: Abl(h) (Homo sapiens, UniProt P00519); assay: In vitro kinase activity test, Abl(h)
Protocol: (§1) Protein kinase with a corresponding enzyme concentration of X (shown in table 1), peptide substrate with a concentration of Y, ATP with a specific concentration, 8 mM MOPS (pH 7.0), and 10 mM MgCl2 were added. The detection plate was P30 filtermat, and the reaction was performed at room temperature for T minutes, and the reaction system was 10 μL.
(§2) The reaction was terminated by adding 0.5% phosphoric acid to the kinase reaction solution, and the plate was read by an Envision instrument.
(§3) The data were converted into phosphorylation rate and inhibition rate, and subjected to parameter curve-fitting (GraphPad Software) to obtain IC50 data of the compounds.

[2] = molecular target: Flt1(h) (Homo sapiens, UniProt P17948); assay: In vitro kinase activity test, Flt1(h)
Protocol: as §1, §2, §3

[3] = molecular target: MINK(h) (Homo sapiens, UniProt Q8N4C8); assay: In vitro kinase activity test, MINK(h)
Protocol: as §1, §2, §3

[4] = molecular target: TNIK(h) (Homo sapiens, UniProt Q9UKE5); assay: In vitro kinase activity test, TNIK(h)
TNIK(h), sequence (Q9UKE5 whole entry): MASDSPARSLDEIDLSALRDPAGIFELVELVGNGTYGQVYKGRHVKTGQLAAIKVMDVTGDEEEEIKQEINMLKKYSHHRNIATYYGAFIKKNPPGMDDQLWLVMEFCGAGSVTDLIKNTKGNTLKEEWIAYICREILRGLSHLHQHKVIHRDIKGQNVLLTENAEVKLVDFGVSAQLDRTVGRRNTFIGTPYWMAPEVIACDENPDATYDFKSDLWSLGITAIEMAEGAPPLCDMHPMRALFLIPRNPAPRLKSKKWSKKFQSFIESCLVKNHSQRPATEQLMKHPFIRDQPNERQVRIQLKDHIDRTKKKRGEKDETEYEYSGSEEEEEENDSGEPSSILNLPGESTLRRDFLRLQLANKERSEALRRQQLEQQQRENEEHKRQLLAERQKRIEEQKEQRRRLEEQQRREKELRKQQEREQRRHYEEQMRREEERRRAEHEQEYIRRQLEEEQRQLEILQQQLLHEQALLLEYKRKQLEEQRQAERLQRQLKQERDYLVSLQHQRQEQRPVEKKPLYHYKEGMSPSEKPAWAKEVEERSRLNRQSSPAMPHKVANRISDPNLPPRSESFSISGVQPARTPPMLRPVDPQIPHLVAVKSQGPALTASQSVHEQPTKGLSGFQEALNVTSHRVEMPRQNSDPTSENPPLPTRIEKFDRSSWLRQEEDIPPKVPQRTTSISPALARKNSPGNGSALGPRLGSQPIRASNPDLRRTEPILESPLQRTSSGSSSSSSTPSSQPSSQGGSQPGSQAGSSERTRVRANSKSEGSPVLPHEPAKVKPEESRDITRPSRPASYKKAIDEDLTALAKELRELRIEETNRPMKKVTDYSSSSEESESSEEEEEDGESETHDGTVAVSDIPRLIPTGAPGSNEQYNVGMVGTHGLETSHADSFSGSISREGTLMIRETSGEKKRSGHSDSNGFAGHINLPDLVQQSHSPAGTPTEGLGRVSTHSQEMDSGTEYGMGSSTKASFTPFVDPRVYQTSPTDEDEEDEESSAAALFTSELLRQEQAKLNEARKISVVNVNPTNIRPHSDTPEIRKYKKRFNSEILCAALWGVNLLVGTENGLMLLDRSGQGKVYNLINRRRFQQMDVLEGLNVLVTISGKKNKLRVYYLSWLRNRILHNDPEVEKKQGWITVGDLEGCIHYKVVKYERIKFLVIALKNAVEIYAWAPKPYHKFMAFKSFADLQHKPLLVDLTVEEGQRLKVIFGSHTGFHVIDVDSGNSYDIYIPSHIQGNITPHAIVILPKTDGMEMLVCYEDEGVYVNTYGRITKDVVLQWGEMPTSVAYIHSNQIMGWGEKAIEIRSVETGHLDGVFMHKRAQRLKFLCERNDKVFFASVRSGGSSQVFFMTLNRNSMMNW
Protocol: as §1, §2, §3

[5] = molecular target: PDGFRβ(h) (Homo sapiens, UniProt P09619); assay: In vitro kinase activity test, PDGFRβ(h)
Protocol: as §1, §2, §3

[6] = molecular target: FGFR1(h) (Homo sapiens, UniProt P11362); assay: In vitro kinase activity test, FGFR1(h)
FGFR1(h), sequence (P11362 22-822): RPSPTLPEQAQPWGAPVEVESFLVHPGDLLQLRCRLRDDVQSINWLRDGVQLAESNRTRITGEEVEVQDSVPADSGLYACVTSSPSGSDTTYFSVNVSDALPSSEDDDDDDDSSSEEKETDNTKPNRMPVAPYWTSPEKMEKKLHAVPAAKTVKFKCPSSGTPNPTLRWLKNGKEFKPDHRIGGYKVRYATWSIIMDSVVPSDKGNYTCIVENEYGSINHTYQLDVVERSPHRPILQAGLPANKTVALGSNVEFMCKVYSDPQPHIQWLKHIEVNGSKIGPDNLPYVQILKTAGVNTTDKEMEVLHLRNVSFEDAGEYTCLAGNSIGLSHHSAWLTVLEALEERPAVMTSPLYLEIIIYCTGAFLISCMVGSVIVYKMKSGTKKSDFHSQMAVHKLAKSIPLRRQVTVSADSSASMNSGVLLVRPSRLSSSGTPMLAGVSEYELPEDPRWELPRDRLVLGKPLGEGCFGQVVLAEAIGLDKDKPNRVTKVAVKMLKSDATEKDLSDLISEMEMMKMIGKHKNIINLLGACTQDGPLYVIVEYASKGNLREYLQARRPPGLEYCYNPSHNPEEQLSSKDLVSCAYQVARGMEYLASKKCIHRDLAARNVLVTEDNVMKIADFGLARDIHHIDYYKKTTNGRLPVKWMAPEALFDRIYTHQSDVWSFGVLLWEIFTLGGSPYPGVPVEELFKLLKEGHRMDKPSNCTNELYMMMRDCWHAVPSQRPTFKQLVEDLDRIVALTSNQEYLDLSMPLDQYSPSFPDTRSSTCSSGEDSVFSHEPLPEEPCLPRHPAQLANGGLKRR
Protocol: as §1, §2, §3

[7] = molecular target: KDR(h) (Homo sapiens, UniProt P35968); assay: In vitro kinase activity test, KDR(h)
Protocol: as §1, §2, §3

[8] = molecular target: T1, Aurora-A(h) (Homo sapiens, UniProt O14965); assay: In vitro kinase activity test, Aurora-A(h)
T1 sequence (O14965 1-403): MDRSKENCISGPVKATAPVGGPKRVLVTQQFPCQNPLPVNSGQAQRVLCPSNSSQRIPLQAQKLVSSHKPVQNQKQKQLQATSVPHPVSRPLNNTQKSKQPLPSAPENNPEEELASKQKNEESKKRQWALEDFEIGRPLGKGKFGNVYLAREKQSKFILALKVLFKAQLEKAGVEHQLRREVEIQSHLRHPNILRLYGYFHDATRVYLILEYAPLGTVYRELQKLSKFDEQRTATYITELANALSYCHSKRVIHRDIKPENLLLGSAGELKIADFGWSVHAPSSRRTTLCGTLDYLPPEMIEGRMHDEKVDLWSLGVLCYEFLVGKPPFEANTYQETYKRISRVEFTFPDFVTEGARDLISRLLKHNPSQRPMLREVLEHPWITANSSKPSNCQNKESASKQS
Protocol: as §1, §2, §3

[9] = molecular target: PDGFRα(h) (Homo sapiens, UniProt P16234); assay: In vitro kinase activity test, PDGFRα(h)
Protocol: as §1, §2, §3

[10] = molecular target: c-Met (Homo sapiens, UniProt P08581); assay: In vitro kinase activity test, c-Met
c-Met, sequence (P08581 25-1390): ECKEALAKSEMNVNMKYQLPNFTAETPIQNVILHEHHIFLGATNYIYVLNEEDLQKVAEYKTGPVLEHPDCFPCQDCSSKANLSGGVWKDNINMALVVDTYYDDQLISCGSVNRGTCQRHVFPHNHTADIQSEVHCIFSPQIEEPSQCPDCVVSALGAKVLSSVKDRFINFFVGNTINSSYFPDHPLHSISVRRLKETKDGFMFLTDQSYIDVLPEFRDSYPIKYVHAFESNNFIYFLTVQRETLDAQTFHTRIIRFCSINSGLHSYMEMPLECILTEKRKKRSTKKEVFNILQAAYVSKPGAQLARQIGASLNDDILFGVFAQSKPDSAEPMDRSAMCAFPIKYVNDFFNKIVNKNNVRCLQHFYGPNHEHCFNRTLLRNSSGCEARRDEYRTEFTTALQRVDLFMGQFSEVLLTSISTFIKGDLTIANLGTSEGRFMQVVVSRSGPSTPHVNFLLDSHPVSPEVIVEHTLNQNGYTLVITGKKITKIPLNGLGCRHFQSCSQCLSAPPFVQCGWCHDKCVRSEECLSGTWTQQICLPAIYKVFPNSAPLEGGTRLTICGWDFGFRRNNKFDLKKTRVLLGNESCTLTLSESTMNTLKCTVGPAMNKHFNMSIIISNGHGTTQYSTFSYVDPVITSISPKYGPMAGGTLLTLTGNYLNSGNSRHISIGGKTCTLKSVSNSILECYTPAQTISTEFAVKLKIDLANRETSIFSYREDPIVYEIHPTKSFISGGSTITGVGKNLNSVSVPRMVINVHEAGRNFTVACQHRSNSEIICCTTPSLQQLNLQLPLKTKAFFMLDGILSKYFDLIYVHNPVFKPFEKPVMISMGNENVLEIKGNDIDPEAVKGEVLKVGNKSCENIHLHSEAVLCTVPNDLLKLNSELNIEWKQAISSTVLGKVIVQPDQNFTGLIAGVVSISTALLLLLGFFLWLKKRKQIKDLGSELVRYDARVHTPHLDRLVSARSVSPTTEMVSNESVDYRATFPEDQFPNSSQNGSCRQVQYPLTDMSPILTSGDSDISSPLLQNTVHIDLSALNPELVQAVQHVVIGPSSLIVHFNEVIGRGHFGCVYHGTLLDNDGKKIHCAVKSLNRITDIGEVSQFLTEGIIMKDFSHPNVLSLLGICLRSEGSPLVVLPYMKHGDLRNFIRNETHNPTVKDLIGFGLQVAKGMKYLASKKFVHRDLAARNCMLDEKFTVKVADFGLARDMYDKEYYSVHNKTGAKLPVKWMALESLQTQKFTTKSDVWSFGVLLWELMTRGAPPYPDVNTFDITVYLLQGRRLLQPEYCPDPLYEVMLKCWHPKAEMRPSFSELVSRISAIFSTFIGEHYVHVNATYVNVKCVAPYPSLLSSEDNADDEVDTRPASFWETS
Protocol: as §1, §2, §3

[11] = molecular target: FGFR3(h) (Homo sapiens, UniProt P22607); assay: In vitro kinase activity test, FGFR3(h)
Protocol: as §1, §2, §3

[12] = molecular target: FGFR4(h) (Homo sapiens, UniProt P22455); assay: In vitro kinase activity test, FGFR4(h)
Protocol: as §1, §2, §3

[13] = molecular target: FGFR2(h) (Homo sapiens, UniProt P21802); assay: In vitro kinase activity test, FGFR2(h)
Protocol: as §1, §2, §3

[14] = molecular target: Flt4(h) (Homo sapiens, UniProt P35916); assay: In vitro kinase activity test, Flt4(h)
Protocol: as §1, §2, §3

[15] = molecular target: cKit(V560G)(h) (Homo sapiens, UniProt P10721, V560G); assay: In vitro kinase activity test, cKit(V560G)(h)
Protocol: as §1, §2, §3

[16] = molecular target: Lck(h) (Homo sapiens, UniProt P06239); assay: In vitro kinase activity test, Lck(h)
Protocol: as §1, §2, §3

[17] = molecular target: cKit(h) (Homo sapiens, UniProt P10721); assay: In vitro kinase activity test, cKit(h)
Protocol: as §1, §2, §3

Abl(h), sequence (P00519 whole entry): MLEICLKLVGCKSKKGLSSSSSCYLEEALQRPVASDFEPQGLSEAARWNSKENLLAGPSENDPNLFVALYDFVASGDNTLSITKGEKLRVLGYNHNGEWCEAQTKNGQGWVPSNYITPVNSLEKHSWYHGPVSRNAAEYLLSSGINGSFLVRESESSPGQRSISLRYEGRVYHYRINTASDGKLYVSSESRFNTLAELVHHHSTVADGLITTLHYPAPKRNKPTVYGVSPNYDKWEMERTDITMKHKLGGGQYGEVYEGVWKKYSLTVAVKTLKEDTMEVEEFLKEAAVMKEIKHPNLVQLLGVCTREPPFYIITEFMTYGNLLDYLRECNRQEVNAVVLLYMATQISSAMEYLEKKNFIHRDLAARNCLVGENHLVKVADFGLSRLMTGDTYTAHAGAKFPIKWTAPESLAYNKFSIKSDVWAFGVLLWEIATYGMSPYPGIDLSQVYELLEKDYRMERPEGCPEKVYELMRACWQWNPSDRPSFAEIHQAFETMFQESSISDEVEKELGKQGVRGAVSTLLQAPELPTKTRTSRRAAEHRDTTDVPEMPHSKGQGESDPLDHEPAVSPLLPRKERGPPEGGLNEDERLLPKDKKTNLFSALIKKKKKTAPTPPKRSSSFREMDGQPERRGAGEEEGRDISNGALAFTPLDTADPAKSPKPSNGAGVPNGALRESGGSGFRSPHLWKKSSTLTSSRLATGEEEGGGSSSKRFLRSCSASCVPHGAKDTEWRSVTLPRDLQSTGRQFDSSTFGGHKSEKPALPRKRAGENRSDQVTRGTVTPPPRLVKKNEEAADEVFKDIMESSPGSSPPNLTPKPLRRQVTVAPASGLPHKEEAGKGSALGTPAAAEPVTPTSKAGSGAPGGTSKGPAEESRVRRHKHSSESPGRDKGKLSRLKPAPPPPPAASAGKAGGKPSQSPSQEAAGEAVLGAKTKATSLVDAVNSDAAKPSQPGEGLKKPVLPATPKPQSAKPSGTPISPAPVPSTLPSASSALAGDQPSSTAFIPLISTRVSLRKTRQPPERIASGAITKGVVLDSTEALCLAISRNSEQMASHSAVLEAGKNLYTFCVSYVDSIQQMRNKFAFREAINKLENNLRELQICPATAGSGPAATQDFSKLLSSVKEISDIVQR

In the case of COc1cc2nccc(Oc3ccc(NC(=O)NC4CC4)c(Cl)c3F)c2cc1C(N)=O [Embodiment 1B], the IC50 [1] is reported as 7 nM, the “activity on ABL improved, compared with Comparative Compound 2” value ([1]; from Table 2) is reported as about 70 times and the “activity on ABL increased, compared with Comparative Compound 1” value ([1]; from Table 2) is reported as 5 times. For the same compound, the IC50 [2] was 10 nM, the IC50 [3] was 48 nM and the IC50 [4] was 14 nM. The “activity on TNIK improved, compared with Comparative Compound 2” value ([4]; from Table 2) was 8 times, the “activity on TNIK increased, compared with Comparative Compound 1” value ([4]; from Table 2) was 6.5 times and the IC50 [5] was 226 nM. The IC50 [6] was 9 nM, the “activity on FGFR1 increased, compared with Comparative Compound 1” value ([6]; from Table 2) was 8 times and the IC50 [7] was 9 nM. For the same compound, the IC50 [8] was 2080 nM, the IC50 [9] was 120 nM and the IC50 ([10]; c-Met IC50, Table 2, ATP 10 μM) was 99.8 nM. The IC50 ([10]; c-Met kinase activity IC50, Table 3, value 45.6 is from the second test (Note 1)) was 45.6 nM, the “activity on c-Met increased, compared with Comparative Compound 1” value ([10]; from Table 2) was 5 times and the IC50 [11] was 26 nM. The “activity on FGFR3 increased, compared with Comparative Compound 1” value ([11]; from Table 2) was 5 times, the IC50 [12] was 92 nM and the “activity on FGFR4 increased, compared with Comparative Compound 1” value ([12]; from Table 2) was 12 times. The IC50 [13] was 6 nM, the “activity on FGFR2 increased, compared with Comparative Compound 1” value ([13]; from Table 2) was 2 times and the IC50 [14] was 3 nM. For the same compound, the IC50 [15] was 262 nM, the IC50 [16] was 43 nM and the IC50 [17] was 68 nM.
